{
  "source": "paper PMC6994103",
  "about": "(PLoS Neglected Tropical Diseases, 2020)",
  "key": {"[1]": {"tested_on": "T. cruzi epimastigotes Dm28c strain", "assay": "Trypanocidal activity in epimastigotes, Dm28c strain", "assay_type": "cell-based, Trypanosoma cruzi", "description": "(§1) VERO cells (5 x10^4 per well) were infected with trypomastigotes (2.5 ×10^5 per well) for 4 h. After this period, the infected cells were washed twice with phosphate-buffered saline (PBS), the MEM medium was replaced, and the cells were kept in culture at 37°C, 5% CO2. In order to obtain intracellular amastigotes, the cells were lysed 4 days after infection using a cell scraper, collected, washed twice with PBS (or MEM) and counted using a hemocytometer. Trypomastigotes were obtained from infected VERO cells as previously described.\nEpimastigotes of T. cruzi were cultured as described above, in 24-wells plate at a start density of 0.5 x10^7 cells/mL in BHT medium. Parasites´ growth was evaluated at different concentrations of BZL, CV and CV structural analogues, and parasite proliferation was determined after 48 h. Trypanocidal activity in trypomastigotes and amastigotes was performed using 1 x10^6 cells/mL in 96-well plates and incubating at 37°C for 24 h in the presence of the corresponding drug. Growth was determined by counting in a Neubauer chamber and viability assays by using “Cell Titer 96 Aqueous One Solution Cell Proliferation Assay (MTS)” (Promega, Madison, WI, USA) according to the manufacturer’s instructions. Amastigotes were fixed with methanol, stained and mounted with Vectashield with DAPI (Vector Laboratories, Burlingame, CA, USA), and then the non-lysed cells were counted by using fluorescence microscopy."}, "[2]": {"tested_on": "T. cruzi trypomastigotes Y strain", "assay": "Synergism BZL with LTD-CPH-CFZ in trypomastigotes, Y strain (CompuSyn)", "assay_type": "cell-based, Trypanosoma cruzi", "description": "Parasites´ growth was evaluated at different concentrations of BZL, CV and CV structural analogues, and parasite proliferation was determined after 48 h. […] Growth was determined by counting in a Neubauer chamber and viability assays by using “Cell Titer 96 Aqueous One Solution Cell Proliferation Assay (MTS)” (Promega, Madison, WI, USA) according to the manufacturer’s instructions. Amastigotes were fixed with methanol, stained and mounted with Vectashield with DAPI (Vector Laboratories, Burlingame, CA, USA), and then the non-lysed cells were counted by using fluorescence microscopy. Calculations were performed using CompuSyn software (http://combosyn.com) which is based on the median-effect equation [48] and its extension, the combination index."}, "VERO cells": {"tested_on": "VERO cells", "assay": "Toxicity assay in VERO cells (gentian violet staining)", "assay_type": "cell-based, African green monkey", "details": "IC50 in VERO cells / IC50 in trypomastigotes (Y strain)", "description": "(§2) VERO cells (African green monkey Kidney, ATCC CCL-81) were cultured in MEM medium supplemented with 10% heat inactivated FCS, 0.15% (w/v) NaHCO3, 100 U/mL penicillin and 100 U/mL streptomycin at 37°C in 5% CO2.\n(§3) The toxicity of the compounds was determined in VERO cells by the gentian violet staining assay. Briefly, the cells (1 x10^4 cells/well) were incubated in 96-well plates with the indicated compound or dimethyl sulfoxide (DMSO) as negative control and maintained at 37° C for 24 h. Then the cells were fixed for 15 min, and stained with 0.5% gentian violet. The absorbance was measured at 570 nm. The selectivity index (SI) was calculated for each CV analogue as the ratio between the IC50 obtained in mammalian cells and the IC50 in trypomastigotes. For the combined treatment, the results were presented as percentage of untreated cells."}, "[3]": {"assay": "Toxicity assay in VERO cells (gentian violet staining)", "assay_type": "cell-based, African green monkey", "details": "African green monkey, VERO cells, 24 h, read-out: viability of the VERO cells, percentage of untreated cells", "description": "as §2, §3"}, "[4]": {"tested_on": "T. cruzi epimastigotes CL Brener strain", "assay": "Trypanocidal activity in epimastigotes, CL Brener strain", "assay_type": "cell-based, Trypanosoma cruzi", "details": "Y vs CL Brener", "description": "as §1\nEpimastigotes of T. cruzi were cultured as described above, in 24-wells plate at a start density of 0.5 x10^7 cells/mL in BHT medium. Parasites´ growth was evaluated at different concentrations of BZL, CV and CV structural analogues, and parasite proliferation was determined after 48 h. […] Growth was determined by counting in a Neubauer chamber and viability assays by using “Cell Titer 96 Aqueous One Solution Cell Proliferation Assay (MTS)” (Promega, Madison, WI, USA) according to the manufacturer’s instructions. Amastigotes were fixed with methanol, stained and mounted with Vectashield with DAPI (Vector Laboratories, Burlingame, CA, USA), and then the non-lysed cells were counted by using fluorescence microscopy."}},
  "note": "“And” between values parts separate entries of the source, which are not always exact repeats. Equal entries are not always repeated.",
  "data": [
    {"smiles": "O=C(Cn1ccnc1[N+](=O)[O-])NCc1ccccc1", "note": "[Benznidazole]", "values": [
      {"measurement": "fold more resistant Dm28c vs CL Brener epimastigotes", "setting": "[1]; Dm28c vs CL Brener", "value": 1.2, "unit": "fold"},
      {"measurement": "fold more sensitive Y vs Dm28c epimastigotes", "setting": "[1]; Y vs Dm28c", "value": 1.6, "unit": "fold"},
      {"measurement": "DRI BZL", "setting": "[2]; BZL 0.50 µM + LTD-CPH-CFZ 3.00 µM (1/10 IC50)", "value": "3.60 ± 0.06"},
      {"measurement": "DRI BZL", "setting": "[2]; BZL 0.50 µM + LTD-CPH-CFZ 6.00 µM (1/5 IC50)", "value": "9.19 ± 1.16"},
      {"measurement": "DRI BZL", "setting": "[2]; BZL 0.50 µM + LTD-CPH-CFZ 7.50 µM (1/4 IC50)", "value": "22.88 ± 3.02"},
      {"measurement": "DRI BZL", "setting": "[2]; BZL 0.50 µM + LTD-CPH-CFZ 10.00 µM (1/3 IC50)", "value": "94.41 ± 15.96"},
      {"measurement": "DRI BZL", "setting": "[2]; BZL 1.00 µM + LTD-CPH-CFZ 3.00 µM (1/10 IC50)", "value": "5.34 ± 0.30"},
      {"measurement": "DRI BZL", "setting": "[2]; BZL 1.00 µM + LTD-CPH-CFZ 6.00 µM (1/5 IC50)", "value": "12.08 ± 1.16"},
      {"measurement": "DRI BZL", "setting": "[2]; BZL 1.00 µM + LTD-CPH-CFZ 7.50 µM (1/4 IC50), listed as BZL", "value": "27 and 27.38 ± 2.15"},
      {"measurement": "DRI BZL", "setting": "[2]; BZL 1.00 µM + LTD-CPH-CFZ 10.00 µM (1/3 IC50)", "value": "95.04 ± 0.83"},
      {"measurement": "DRI BZL", "setting": "[2]; BZL 5.00 µM + LTD-CPH-CFZ 3.00 µM (1/10 IC50)", "value": "2.88 ± 0.54"},
      {"measurement": "DRI BZL", "setting": "[2]; BZL 5.00 µM + LTD-CPH-CFZ 6.00 µM (1/5 IC50)", "value": "7.17 ± 1.62"},
      {"measurement": "DRI BZL", "setting": "[2]; BZL 5.00 µM + LTD-CPH-CFZ 7.50 µM (1/4 IC50)", "value": "14.85 ± 6.05"},
      {"measurement": "DRI BZL", "setting": "[2]; BZL 5.00 µM + LTD-CPH-CFZ 10.00 µM (1/3 IC50)", "value": "32.44 ± 3.71"},
      {"measurement": "DRI BZL", "setting": "[2]; BZL 10.00 µM + LTD-CPH-CFZ 3.00 µM (1/10 IC50)", "value": "1.46 ± 0.23"},
      {"measurement": "DRI BZL", "setting": "[2]; BZL 10.00 µM + LTD-CPH-CFZ 6.00 µM (1/5 IC50)", "value": "6.02 ± 1.15"},
      {"measurement": "DRI BZL", "setting": "[2]; BZL 10.00 µM + LTD-CPH-CFZ 7.50 µM (1/4 IC50)", "value": "33.28 ± 1.72"},
      {"measurement": "DRI BZL", "setting": "[2]; BZL 10.00 µM + LTD-CPH-CFZ 10.00 µM (1/3 IC50)", "value": "35.17 ± 4.38"},
      {"measurement": "Dose BZL alone", "setting": "[2]; same effect (Fa 0.226) as BZL 0.50 µM + LTD-CPH-CFZ 3.00 µM", "value": "1.80 ± 0.03", "unit": "µM"},
      {"measurement": "Dose BZL alone", "setting": "[2]; same effect (Fa 0.417) as BZL 0.50 µM + LTD-CPH-CFZ 6.00 µM", "value": "4.60 ± 0.58", "unit": "µM"},
      {"measurement": "Dose BZL alone", "setting": "[2]; same effect (Fa 0.452) as BZL 1.00 µM + LTD-CPH-CFZ 3.00 µM", "value": "5.34 ± 0.30", "unit": "µM"},
      {"measurement": "Dose BZL alone", "setting": "[2]; same effect (Fa 0.631) as BZL 0.50 µM + LTD-CPH-CFZ 7.50 µM", "value": "11.44 ± 1.51", "unit": "µM"},
      {"measurement": "Dose BZL alone", "setting": "[2]; same effect (Fa 0.643) as BZL 1.00 µM + LTD-CPH-CFZ 6.00 µM", "value": "12.08 ± 1.16", "unit": "µM"},
      {"measurement": "Dose BZL alone", "setting": "[2]; same effect (Fa 0.679) as BZL 5.00 µM + LTD-CPH-CFZ 3.00 µM", "value": "14.42 ± 2.70", "unit": "µM"},
      {"measurement": "Dose BZL alone", "setting": "[2]; same effect (Fa 0.702) as BZL 10.00 µM + LTD-CPH-CFZ 3.00 µM", "value": "14.56 ± 2.33", "unit": "µM"},
      {"measurement": "Dose BZL alone", "setting": "[2]; same effect (Fa 0.798) as BZL 1.00 µM + LTD-CPH-CFZ 7.50 µM", "value": "27.38 ± 2.15", "unit": "µM"},
      {"measurement": "Dose BZL alone", "setting": "[2]; same effect (Fa 0.833) as BZL 5.00 µM + LTD-CPH-CFZ 6.00 µM", "value": "35.83 ± 8.10", "unit": "µM"},
      {"measurement": "Dose BZL alone", "setting": "[2]; same effect (Fa 0.869) as BZL 0.50 µM + LTD-CPH-CFZ 10.00 µM", "value": "47.21 ± 7.98", "unit": "µM"},
      {"measurement": "Dose BZL alone", "setting": "[2]; same effect (Fa 0.893) as BZL 10.00 µM + LTD-CPH-CFZ 6.00 µM", "value": "60.21 ± 11.50", "unit": "µM"},
      {"measurement": "Dose BZL alone", "setting": "[2]; same effect (Fa 0.905) as BZL 5.00 µM + LTD-CPH-CFZ 7.50 µM", "value": "74.24 ± 30.25", "unit": "µM"},
      {"measurement": "Dose BZL alone", "setting": "[2]; same effect (Fa 0.929) as BZL 1.00 µM + LTD-CPH-CFZ 10.00 µM", "value": "95.04 ± 0.83", "unit": "µM"},
      {"measurement": "Dose BZL alone", "setting": "[2]; same effect (Fa 0.976) as BZL 5.00 µM + LTD-CPH-CFZ 10.00 µM", "value": "162.18 ± 18.57", "unit": "µM"},
      {"measurement": "Dose BZL alone", "setting": "[2]; same effect (Fa 0.988) as BZL 10.00 µM + LTD-CPH-CFZ 7.50 µM", "value": "332.83 ± 17.17", "unit": "µM"},
      {"measurement": "Dose BZL alone", "setting": "[2]; same effect (Fa 0.988) as BZL 10.00 µM + LTD-CPH-CFZ 10.00 µM", "value": "351.76 ± 43.93", "unit": "µM"},
      {"measurement": "Selectivity Index", "setting": "VERO cells", "value": ">67"},
      {"measurement": "viability at 24 h, 5 µM", "setting": "[3]; BZL 5.0 µM + LTD-CPH-CFZ 0 µM", "value": 96.6, "unit": "%"},
      {"measurement": "viability at 24 h, 10 µM", "setting": "[3]; BZL 10.0 µM + LTD-CPH-CFZ 0 µM", "value": 97.5, "unit": "%"},
      {"measurement": "viability at 24 h, 50 µM", "setting": "[3]; BZL 50.0 µM + LTD-CPH-CFZ 0 µM", "value": 95.7, "unit": "%"},
      {"measurement": "viability at 24 h, 100 µM", "setting": "[3]; BZL 100.0 µM + LTD-CPH-CFZ 0 µM", "value": 92.9, "unit": "%"},
      {"measurement": "fold more sensitive Y vs CL Brener epimastigotes", "setting": "[4]", "value": 1.3, "unit": "fold"}
    ]}
  ]
}
